We go through one compound from paper PMC11596536, “Unveiling the Anticancer Potential of a New Ciprofloxacin-Chalcone Hybrid as an Inhibitor of Topoisomerases I & II and Apoptotic Inducer” (Molecules, 2024).

Structures are written as SMILES.

The target in this assay is T1, Topoisomerase I (Homo sapiens, UniProt P11387).
T1 construct: gene TOP1
T1 sequence (P11387 2-765): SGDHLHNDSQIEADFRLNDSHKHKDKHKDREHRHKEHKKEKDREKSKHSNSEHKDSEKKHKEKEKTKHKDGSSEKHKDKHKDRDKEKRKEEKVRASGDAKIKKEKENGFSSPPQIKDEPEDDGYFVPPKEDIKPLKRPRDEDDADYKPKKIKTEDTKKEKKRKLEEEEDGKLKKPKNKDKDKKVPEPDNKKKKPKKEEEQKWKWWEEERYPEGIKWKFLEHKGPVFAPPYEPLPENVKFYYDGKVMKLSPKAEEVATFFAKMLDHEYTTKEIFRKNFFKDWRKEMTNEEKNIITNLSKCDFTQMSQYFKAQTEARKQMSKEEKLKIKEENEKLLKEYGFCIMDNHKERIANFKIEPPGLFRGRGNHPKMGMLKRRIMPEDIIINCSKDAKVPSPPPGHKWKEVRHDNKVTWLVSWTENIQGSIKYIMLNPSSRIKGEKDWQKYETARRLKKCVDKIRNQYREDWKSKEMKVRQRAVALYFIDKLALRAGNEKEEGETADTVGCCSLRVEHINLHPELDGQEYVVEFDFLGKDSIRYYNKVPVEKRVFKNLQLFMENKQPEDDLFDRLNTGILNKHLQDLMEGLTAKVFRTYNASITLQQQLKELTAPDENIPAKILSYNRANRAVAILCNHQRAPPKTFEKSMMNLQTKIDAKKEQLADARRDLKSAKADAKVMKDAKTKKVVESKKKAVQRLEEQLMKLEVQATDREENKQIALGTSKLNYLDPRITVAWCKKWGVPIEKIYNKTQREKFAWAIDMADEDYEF
Kind of assay: Topo I DNA relaxation assay (commercial kit), agarose gel electrophoresis. In kind it is biochemical.

Broadly, the IC50 is the concentration that gives 50% inhibition. A higher IC50 goes with weaker potency.

For `O=C(/C=C/c1ccc(Cl)cc1)c1ccc(NC(=O)N2CCN(c3cc4c(cc3F)c(=O)c(C(=O)O)cn4C3CC3)CC2)cc1` [compound 2, 7-(4-((4-(3-(4-Chlorophenyl)acryloyl)phenyl)carbamoyl)piperazin-1-yl)-1-cyclopropyl-6-fluoro-4-oxo-1,4-dihydroquinoline-3-carboxylic acid], the IC50 came to 37.5 µM.
